This is an account of results in patent US6809120B1, “Composition containing propargylamine for enhancing cancer therapy” (University of Saskatchewan Technologies Inc., priority 1998, dated 2004).

For one data set, the system named is rat2 cells. As to the kind of experiment: In vitro clonogenic cell survival assay, modulation of cisplatinum toxicity in normal cells (RATIO method). Type of data set: cell-based, rat. To be noted: with cisplatinum. The source says: (§1) The protocol detailed below can be used for any normal/tumorigenic cell pair which will attach to plastic. Non-adherent lines (which includes most tumor cells, including NW16; consult references 5-10) require quantitation in soft agar. The present experiments are based on i) rat2 cells, a phenotypically normal, established rat fibroblast line and, ii) a tumorigenic derivative thereof, NW16 cells, which are rat2 cells transformed by a Fujinami sarcoma virus oncogene (see work of A. Pawson and P130^gag-fps). Rat2 and NW16 cells are maintained in a sub-confluent randomly-proliferating state in Dulbecco's modified minimal essential media with 10% (vol/vol) calf serum in plates incubated at 37° C. in a humidified CO2 (10%) incubator. All experiments reported rely on clonogenic cell survival assays (see references 4-6). Assays using rat2 (normal cells) were performed as follows: cells are exposed, in 10 cm culture dishes, to various drugs in media plus serum for varying lengths of time; seeding is at varying cell numbers, over log10 ranges, depending upon the degree of killing anticipated. [For the figure presented, incubation was for 72 hours prior to washing and assessment of clonogenic survival]. Both control and the experimental cultures are then gently washed, twice, with phosphate buffered saline, then once more with media minus serum, and then left in media plus serum, undisturbed until macroscopic colonies appear (7-9 days of incubation). The colonies are then fixed and stained with saturated methylene blue in 50% methanol and counted. The number of colonies, evaluated from 2 or more sets of duplicate cultures seeded at initial densities differing by factors of 10, are determined and converted to relative number of colonies, using the 0-hour control value as 1.0. Assays of NW16 cells were similar; however, because these cells are poorly adherent, following drug exposure, the washing procedure is modified, as is the quantitation of survivors step. In the latter case, quantitation requires plating the cells in soft agar (references 5-10).
A simplified presentation of the data, by the RATIO method, is show in FIG. 1. […] Ratios greater than unity indicate that the modulator has conferred a protective response, whereas ratios less than unity indicate an enhanced cell killing.

A further data set deals with NW16 cells. Put plainly: In vitro clonogenic cell survival assay in soft agar, modulation of cisplatinum toxicity in tumorigenic cells (RATIO method). It counts as cell-based, rat. To be noted: for enhanced killing of tumor cells in the presence of cisplatinum (result in words): in vitro fibroblast model.
Source text: as §1, with “5-10). […]” for “5-10).”

The test system of data set [1] is normal femoral bone marrow cells (CFU-C/GM). As to the kind of experiment: In vivo assessment of anticancer drug modulators: relative cell survival of normal femoral bone marrow cells in P388-bearing mice. The conditions noted are these: for toxicity of cisplatinum to the marrow cells in the presence of modulator / protection of normal bone marrow cells (result in words): DBA/2J mice with P388, ip; for toxicity of cisplatinum to the marrow cells in the presence of modulator: cisplatinum 0.2 mg plus modulator, 48 h; for protection of normal bone marrow cells (result in words): with cisplatinum 0.2 mg, Histidinol 5 mg/injection or R-2HPA 0.38 ug/injection x5, 48 h after treatment, FIG. 2. Here is the method: (§2) Seven groups of mice were treated and assessed in this model as follows:
(§3) P388 cells (1 million) were injected into the tail vein of 22 female DBA/2J mice (Protocol first developed in reference 6 and 8). The mice were then randomly divided into the above groups and injected (ip) with drugs 96 h later. Doses were cisplatinum 0.2 mg at 0 hour; Histidinol 5 mg/injection and R-2HPA 0.38 ug/injection; administered 5 times at −2, 0, +2, +4, and +6 hours. 48 h after drug treatment, cells from the femurs of the mice were harvested, washed and plated (at log10 dilutions) so as to allow quantitative and specific relative cell survival values to be generated for the responses of normal femoral bone marrow cells (specifically, CFU-C/GM or granulocyte/macrophage precursor cells) and clonogenic P388 leukemia cells (8).

The test system of a further data set is P388 leukemia cells. As to the kind of experiment: In vivo assessment of anticancer drug modulators: relative cell survival of clonogenic P388 leukemia cells in femurs of mice. To be noted: DBA/2J mice; for increase of cisplatinum toxicity to the leukemia cells in the presence of modulator / enhanced killing by cisplatinum of P388 cells (result in words): ip, 48 h; for increase of cisplatinum toxicity to the leukemia cells in the presence of modulator: cisplatinum 0.2 mg plus modulator; for enhanced killing by cisplatinum of P388 cells (result in words): with cisplatinum 0.2 mg, Histidinol 5 mg/injection or R-2HPA 0.38 ug/injection x5, FIG. 3. The protocol:
as §2, §3

Take `C#CCN(C)[C@H](C)CCCCC` [R-2HMP, R-2-heptyl-methylpropargylamine]: in the data set on rat2 cells (FIG. 1), the “protection of normal fibroblasts from cisplatinum (result in words)” value (“protection of normal fibroblasts” below) is reported as “protect normal cells”. Further, in the data set on NW16 cells (NW16 tumorigenic cells, with cisplatinum, FIG. 1), the “concentration at which the effect reverses to a protective effect in tumorigenic cells” value is reported as ≥ 10^−9 M. In the data set on NW16 cells, the “enhanced killing of tumor cells in the presence of cisplatinum (result in words)” value was “enhance the killing of tumor cells”.
`C#CCN[C@H](C)CCCCC` [R-2HPA, R-2-heptyl-propargylamine]: in data set [1], the “toxicity of cisplatinum to the marrow cells in the presence of modulator” value is “essentially eliminated” and the “protection of normal bone marrow cells (result in words)” value is on record as “effective at protecting normal bone marrow cells”. In the data set on rat2 cells (FIG. 1), the “protection of normal fibroblasts” value was “protect normal cells”. In addition, in the data set on rat2 cells (FIG. 1, listed as R-2BPA), the “protection of normal fibroblasts” value is “more potent”. In addition, the “enhanced killing of tumor cells in the presence of cisplatinum (result in words)” value in the data set on NW16 cells is “enhance the killing of tumor cells”. Further, in the data set on P388 leukemia cells, the “increase of cisplatinum toxicity to the leukemia cells in the presence of modulator” value is on record as roughly 1000 fold and the “enhanced killing by cisplatinum of P388 cells (result in words)” value is recorded as “enhanced the killing by cisplatinum of P388 cells”. Also, the “therapeutic index between protection of healthy normal cells and killing of cancerous cells” value in the data set with P388 leukemia cells (R-2HPA 0.38 ug dose with cisplatinum) was “about 50,000”.
In the case of `C#CCN(C)[C@@H](C)CCCCC` [S-2HMP], the “protection of normal fibroblasts” value in the data set on rat2 cells (FIG. 1) was “inactive”.
In the case of `N.N.[Cl][Pt][Cl]` [cisplatinum], the “effectiveness at killing normal marrow cells relative to intrafemoral leukemia cells, drug used alone” value in data set [1] (cisplatinum 0.2 mg ip alone, DBA/2J mice with P388, 48 h) was “about 100 times”.
For `N[C@H](CO)Cc1c[nH]cn1` [histidinol, L-histidinol, reference compound], in data set [1], the “toxicity of cisplatinum to the marrow cells in the presence of modulator” value is reported as “essentially eliminated” and the “protection of normal bone marrow cells (result in words)” value is recorded as “effective at protecting normal bone marrow cells”. In the data set on rat2 cells (FIG. 1), the “protection of normal fibroblasts” value is listed as “exhibits similar properties”. In the data set on P388 leukemia cells, the “increase of cisplatinum toxicity to the leukemia cells in the presence of modulator” value is given as roughly 1000 fold and the “enhanced killing by cisplatinum of P388 cells (result in words)” value is recorded as “enhanced the killing by cisplatinum of P388 cells”.
R-deprenyl [reference compound]: the “protection of normal fibroblasts” value in the data set with rat2 cells (FIG. 1) is “less efficacious”.
